# Test results reported in paper PMC6132986, “Assessing the toxicity of thiamethoxam, in natural LUFA 2.2 soil, through three generations of Folsomia candida” (Ecotoxicology (London, England), 2018).
# “And” between values parts separate entries of the source, which are not always exact repeats. Identical values can stand only once. Like-named read-outs stand apart in the source and are kept apart here.
# Assays:
# [1] = tested on: Folsomia candida; details: cited from earlier work
# [2] = tested on: Folsomia candida; assay: Folsomia candida multigeneration (P, F1, F2) survival and reproduction test in freshly spiked LUFA 2.2 soil; format: in vivo; details: nominal concentrations
# Protocol: All tests were performed using natural standard LUFA 2.2 soil (LUFA Speyer, Germany), having approximately 1.6% organic carbon, water holding capacity (WHC) of 45%, and soil pH (0.01 M CaCl2) measured in a preliminary test, ranging between 5.03 and 5.87.
# Stock solutions of both compounds were prepared in milli-Q water in order to spike the chemicals in the test soil and at the same time bring its moisture content to 50% of the water holding capacity (WHC). The concentration range used for both compounds was: Control −0.04 −0.12 −0.37 −1.1 −3.3 −10 mg a.s./kg dry soil. Due to the toxic effect of the neonicotinoids, the three highest concentrations had to be dropped for F1 and F2 generations. Tests were performed in 100 ml glass jars, containing 30 g moist soil, using five replicate test jars with animals, and two replicates containing approximately 15 g of soil each, without animals (soil analysis). All the test jars were weighed at the start of the test, so the water loss could be checked and replenished, if needed, on a weekly basis.
# Folsomia candida Willem 1902 is a cosmopolitan arthropod, belonging to the Collembola order, which is phylogenetically related to the Insecta. The family Isotomidae have a ventral tube or collophore which is involved in the exchange of fluids with the external environment, being an important route of exposure to contaminants present in the pore water. Sexual maturity of F. candida is achieved between 21 to 24 days after hatching (sixth instar), and each individual can lay about 30 to 50 eggs per batch (Fountain and Hopkin [2005]). Adults of this species were taken from cultures at the Department of Ecological Science at the Vrije Universiteit in Amsterdam. In order to obtain synchronized animals, adults were transferred from the culture to 125 ml translucent plastic boxes with a 2 cm layer of plaster of Paris and activated charcoal (8:1), moistened with water, and left for a period of 2–3 days to lay eggs, after which they were removed. The eggs were incubated under a 12 h light/12 h dark regime at 20°C and 75% relative humidity, where they hatched. Juveniles of 10–12 days old were used for starting the test for the parental (P) generation.
# Ten age-synchronized animals (10–12 days old) were added to the replicate test jars in generation P. For generations F1 and F2 the age of the animals transferred was around 8–9 days. […] The same procedure was performed for ending the tests with the F1 (after 35–36 days) and F2 (28 days) generations. At the end of the tests, the jars were flooded with water to allow the animals to float and being photographed using a Nikon COOLPIX P510 camera. The images were analysed using the software ImageJ, a Java-based processing program adjusted for counting the animals. For the P and F1 generations, only the juveniles produced in all replicates of each concentration were transferred, using a sieve, to a single container with a plaster of Paris bottom, and left overnight in a climate room, at 20 ± 2 °C, with a 75% relative humidity and a photoperiod of 16:8 h […]. On the following day, batches of 10 randomly selected animals were transferred to jars, with their respective concentration, filled with soil freshly spiked, and covered with an opaque black plastic lid, loosely attached to the rim to allow for aeration. At the start and every week a few grains of dry baker’s yeast (Instant yeast from Algist Bruggeman N.V, Ghent, Belgium) and water were added to the test vessels if needed.
# All the dose-response data was analysed using the package “drc”(dose response curve) in the software R, using a general model fitting function–drm, with the option for model select (Ritz and Streibig [2005]). The endpoints LC50, addressing the effects on adult survival, and ECx, addressing sub-lethal effects on the juvenile population were expressed on the basis of nominal soil concentrations.
# [3] = pH 7, 20°C; ref Jeschke et al. [2011]; cited from earlier work
# [4] = cited from earlier work
# [5] = Chemical analysis (LC-MSMS) and degradation of thiamethoxam in LUFA 2.2 soil; format: physicochemical
# Protocol: The samples were analysed for thiamethoxam by the commercial certified analytical laboratory Groen Agro Control in Delfgauw, The Netherlands, using LC-MSMS. Detection limit was 0.01 mg/kg dry soil.
# Using data on the measured concentrations of thiamethoxam, half-life (DT50) values were estimated assuming first order degradation kinetics. The equation C = C0 × e^−k×t was fitted to the data, with C = concentration at time t in days, C0 is concentration at t = 0 and k = degradation rate constant (day^−1). DT50 was derived as ln(2)/k.
# [6] = LUFA 2.2 soil, ref De Lima e Silva et al. [2017], van Gestel et al. [2017]
# [7] = Lufa 2.2 soil, ref de Lima e Silva et al. [2017]
# [8] = Lufa 2.2 soil, ref van Gestel et al. [2017]
# [9] = sphagnum peat (10%), kaolinite clay (20%), quartz sand (70%), ref Reynolds [2008]
# [10] = F1 generation, 35-36 days exposure
# [11] = F1 generation, 35-36 days exposure, listed as pure thiamethoxam
# [12] = F2 generation, 28 days exposure
# [13] = F2 generation, 28 days exposure, listed as pure thiamethoxam
structure (smiles),measurement,setting,value
"O=[N+]([O-])NC1=NCCN1Cc1ccc(Cl)nc1 [Imidacloprid, imidacloprid]",EC50,[1]; [6],0.26–0.29 mg a.s./kg dry soil
same,LC50,[1]; [6],0.44–0.47 mg a.s./kg dry soil
same,EC50,[1]; [7],0.26 mg a.s./kg
same,LC50,[1]; [7],0.47 mg a.s./kg
same,EC50,[1]; [8],0.29 mg a.s./kg
same,LC50,[1]; [8],0.44 mg a.s./kg
same,EC50,[1]; [9],0.26 mg a.s./kg
same,LC50,[1]; [9],0.86 mg a.s./kg
"CN1COCN(Cc2cnc(Cl)s2)/C1=N\[N+](=O)[O-] [Thiamethoxam Pure, thiamethoxam]",EC50 (reproduction),[2]; [10],0.23 (0–0.52) mg a.s./kg dry soil
same,LC50 (adult survival),[2]; [10],>0.37 mg a.s./kg dry soil
same,EC50 (reproduction),[2]; [11],0.23 mg a.s./kg dry soil
same,LC50 (adult survival),[2]; [11],> 0.37 mg a.s./kg dry soil
same,EC10 (reproduction),[2]; F1 generation,0.06 (0–0.14) mg a.s./kg dry soil
same,EC20 (reproduction),[2]; F1 generation,0.09 (0–0.20) mg a.s./kg dry soil
same,EC50 (reproduction),[2]; [12],0.30 (0.09–0.50) mg a.s./kg dry soil
same,LC50 (adult survival),[2]; [12],>0.37 mg a.s./kg dry soil
same,EC50 (reproduction),[2]; [13],0.30 mg a.s./kg dry soil
same,LC50 (adult survival),[2]; [13],> 0.37 mg a.s./kg dry soil
same,EC10 (reproduction),[2]; F2 generation,0.15 (0–0.64) mg a.s./kg dry soil
same,EC20 (reproduction),[2]; F2 generation,0.20 (0–0.63) mg a.s./kg dry soil
same,EC50 (reproduction),"[2]; Parental generation, 28 days exposure (Actara 27 days)",0.23 (0.20–0.30) mg a.s./kg dry soil
same,LC50 (adult survival),"[2]; Parental generation, 28 days exposure (Actara 27 days), 95% CI in brackets",0.32 (0.30–0.40) mg a.s./kg dry soil
same,LC50 (adult survival),"[2]; Parental generation, 28 days exposure (Actara 27 days), 95% CI in brackets, listed as pure thiamethoxam",0.32–0.35 mg a.s./kg dry soil and 0.32 mg a.s./kg dry soil
same,EC50 (reproduction),"[2]; Parental generation, 28 days exposure (Actara 27 days), listed as pure thiamethoxam",0.23–0.25 mg a.s./kg dry soil
same,EC10 (reproduction),[2]; Parental generation,0.07 (0.03–0.10) mg a.s./kg dry soil
same,EC20 (reproduction),[2]; Parental generation,0.12 (0.070–0.20) mg a.s./kg dry soil
same,Log KOW,[3],−0.13
same,octanol-water partition coefficient,[3],0.741
same,half-life in soil,[4]; ref Bonmatin et al. [2015],≤ 355 days
same,half-life,"[5]; LUFA 2.2 soil, average over nominal 0.12-1.1 mg/kg dry soil, read-out: DT50 (half-life in soil), average (converted)",139 days
same,"DT50 (half-life in soil), range over the concentrations","[5]; LUFA 2.2 soil, nominal 0.12-1.1 mg/kg dry soil",112 to 165 days
same,half-life,"[5]; LUFA 2.2 soil, nominal 0.12-1.1 mg/kg dry soil, read-out: DT50 (half-life in soil), range over the concentrations",112 to 156 days
same,Concentration in soil as % of the nominal,"[5]; first day of the experiment (t = 0), pure and Actara treatments together",75–100%
same,half-life at 0.12 mg/kg dry soil,"[5]; nominal 0.12 mg/kg dry soil, LUFA 2.2 soil, first order degradation kinetics, read-out: DT50 (half-life in soil) (converted)",165 days
same,half-life at 0.37 mg/kg dry soil,"[5]; nominal 0.37 mg/kg dry soil, LUFA 2.2 soil, first order degradation kinetics, read-out: DT50 (half-life in soil) (converted)",140 days
same,half-life at 1.1 mg/kg dry soil,"[5]; nominal 1.1 mg/kg dry soil, LUFA 2.2 soil, first order degradation kinetics, read-out: DT50 (half-life in soil) (converted)",112 days
same,Recovery Rate,"[5]; t = 0, nominal 0.12 mg/kg dry soil",75%
same,Measured Concentration of thiamethoxam in soil,"[5]; t = 0, nominal 0.12 mg/kg dry soil, LUFA 2.2 soil",0.09 mg/kg dry soil
same,Recovery Rate,"[5]; t = 0, nominal 0.37 mg/kg dry soil",84%
same,Measured Concentration of thiamethoxam in soil,"[5]; t = 0, nominal 0.37 mg/kg dry soil, LUFA 2.2 soil",0.31 mg/kg dry soil
same,Recovery Rate,"[5]; t = 0, nominal 1.1 mg/kg dry soil",85%
same,Measured Concentration of thiamethoxam in soil,"[5]; t = 0, nominal 1.1 mg/kg dry soil, LUFA 2.2 soil",0.94 mg/kg dry soil
same,Recovery Rate,"[5]; t = 28 days, nominal 0.12 mg/kg dry soil",66%
same,Measured Concentration of thiamethoxam in soil,"[5]; t = 28 days, nominal 0.12 mg/kg dry soil, LUFA 2.2 soil",0.08 mg/kg dry soil
same,Measured Concentration of thiamethoxam in soil,"[5]; t = 28 days, nominal 0.37 mg/kg dry soil, LUFA 2.2 soil",0.27 mg/kg dry soil
same,Recovery Rate,"[5]; t = 28 days, nominal 1.1 mg/kg dry soil",72%
same,Measured Concentration of thiamethoxam in soil,"[5]; t = 28 days, nominal 1.1 mg/kg dry soil, LUFA 2.2 soil",0.79 mg/kg dry soil
N#C/N=C1\SCCN1Cc1ccc(Cl)nc1 [thiacloprid],half-life in soil,[4]; ref Van Gestel et al. [2017],10 to 12 days
